From patent US9155741B2, “Methods of using a methylxanthine compound” (The Trustees of the University of Pennsylvania, priority 2008, dated 2015)

Key:
[1] = test system: cytochrome oxidase subunit I (CcOX-I); experiment: Immunoblot of steady-state levels of cardiac cytochrome oxidase subunit I; format: in vivo, rat; settings: between all groups (SHAM/CLP, saline/caffeine), normalized to porin
Procedure: (§1) The care of the animals in this study was in accordance with NIH and Institutional Animal Care and Use Committee guidelines. Under isoflurane general anesthesia (up to 2%), 250 g male Sprague-Dawley rats (Charles River, Boston, Mass., USA) underwent cecal ligation and double puncture (CLP) with an 18-gauge needle or sham operation as previously described. All animals were administered 50 ml/kg saline subcutaneously immediately post procedure and every 24 hours. Once awake, animals were given access to food and water ad libitum.
(§2) Twenty four and 48 hours post-procedure, rats received either an intraperitoneal (i.p) injection of caffeine (7.5 mg/kg, Sigma-Aldrich, St. Louis, Mo.) or equal volume saline (1 mL). […] Four cohorts were evaluated: SHAM saline, SHAM caffeine, CLP saline, CLP caffeine. […]
(§3) Cardiac ventricles were harvested and homogenized in ice-cold H medium (70 mM sucrose, 220 mM mannitol, 2.5 mM Hepes, pH 7.4 and 2 mM EDTA). […] Pellets were again resuspended in H medium and mitochondrial protein concentration determined using the method of Lowry.
10 μg samples of mitochondrial protein were subjected to SDS-acrylamide gel electrophoresis and immunoblotting. […] The signal was detected with enhanced chemiluminescence (ECL; Amersham Pharmacia Biotech, Piscataway, N.J., USA), and density was measured using scanning densitometry. Five animals per group per experiment were evaluated.

[2] = test system: isolated rat heart; experiment: Isolated rat heart preparation (left ventricular function, coronary perfusion, oxygen extraction and consumption) after CLP or sham operation; format: in vivo; settings: for heart rate: mean +/- SD
Procedure: as §1
Twenty four and 48 hours post-procedure, rats received either an intraperitoneal (i.p) injection of caffeine (7.5 mg/kg, Sigma-Aldrich, St. Louis, Mo.) or equal volume saline (1 mL). Rats were sacrificed one hour after the 48 hour injection following euthanasia with 150 mg/kg of intraperitoneal pentobarbital. Four cohorts were evaluated: SHAM saline, SHAM caffeine, CLP saline, CLP caffeine. N=5 per group. The 24-hour time point was chosen for initial intervention based on the onset of the hypodynamic phase when cardiac function begins to deteriorate and the presence of reversible CcOX inhibition. Studies were performed at the 48-hour time point because this time point represents the late phase of sepsis when cardiac function is markedly depressed and mortality is 75%.
Rats were anesthetized with intraperitoneal pentobarbital (70 mg/kg) and heparinized (1000 U IP). The heart was excised rapidly and the aorta was cannulated. Retrograde perfusion was initiated at constant flow (12 mL/g-min) with a modified Krebs-Henseleit buffer containing (mmol/L) NaCl 120, KCl 4.7, MgSO4 1.2, KH2PO4 1.2, CaCl2 1.25, NaHCO3 25, and glucose. The non-recirculating buffer was maintained at pH 7.4 equilibrated with 95% O2-5% CO2 at 37° C. Isovolumetric left ventricle pressure (LVP) was measured with a transducer connected to a saline-filled latex balloon inserted into the left ventricle through the left atrium. The balloon was inflated to maintain an end-diastolic pressure of 10 mmHg Hearts were immersed in a water-jacketed chamber maintained at 37° C. and allowed to stabilize for 30 minutes.
Heart rate, LVP, the maximum rate of positive and negative change in LVP (+/−dP/dt), and aortic pressure were collected with an analog-to-digital converter system (Power Laboratory 4SP, ADlnstruments, Castle Hill, Australia). […] Measurements were obtained at coronary flow rates (CF) of 12, 10, 8, 6, and 4 mL/g-min Coronary inflow oxygen tension (PaO2) and coronary sinus oxygen tension (PvO2) were measured (GEM Premier 3000, Instrumentation Laboratory, Belgium). Percent O2 extraction was calculated as 100×(PaO2-PvO2/PaO2). Myocardial O2 consumption (MO2) was calculated as CF/g×(PaO2-PvO2)×O2 solubility at 760 mmHg O2 solubility is 24 |il/ml H2O at 37° C. Coronary perfusion pressure was calculated as the difference between mean aortic pressure and LV end-diastolic pressure. Coronary resistance was calculated by dividing perfusion pressure by coronary flow.

[3] = biological target: T1, cytochrome oxidase (CcOX) (Rattus norvegicus, UniProt P05503); experiment: Myocardial cytochrome oxidase steady-state kinetic activity in isolated cardiac mitochondria after CLP or sham operation; format: in vivo
T1 construct: from tissue; host or cells: mitochondria isolated from cardiac ventricles of Sprague-Dawley rats
Procedure: as §1, §2, §3
CcOX kinetics were assayed by the method of Smith in which the rate of oxidation of ferrocytochrome c was measured by following the decrease in absorbance at 550 nm. […] Specific activity was calculated from mean values of three to four measurements using 21.1 mM−cm^−1 as the extinction coefficient of ferrocytochrome c at 550 nm. […]

[4] = test system: cecal ligation and puncture (CLP) sepsis model; experiment: Survival to 96 hours following CLP or sham operation; format: in vivo, rat
Procedure: as §1
The survival was followed in a separate cohort of animals in this two treatment parallel-design study to 96 hours. Each animal was injected with either caffeine (7.5 mg/kg i.p.) or equal volume of saline (1 mL i.p.) every 24 hours beginning 24 hours following CLP or sham operation. Twenty animals per group were evaluated based on the probability being 80 percent that the study will detect a treatment difference at a two-sided 5.0 percent significance level, if the true hazard ratio is 3.
Data are presented as mean +/− standard deviation. Statistical significance was assessed using ANOVA and post hoc Tukey's test with p<0.05. Statistical significance in the survival study was assessed using Kaplan-Meier survival curves and Mantel-Cox log-rank test.

[5] = CLP caffeine, 12 mL/g-min coronary flow, compared to saline injected sham values (so in the source)
[6] = CLP caffeine, toward saline injected sham values, most flow rates
[7] = sham caffeine vs both CLP groups, all coronary flow rates
[8] = sham caffeine vs saline injected sham, highest flow rates

## Cn1c(=O)c2c(ncn2C)n(C)c1=O [caffeine]
[1]
  steady-state myocardial CcOX I levels: no significant difference
[2]; CLP caffeine vs CLP saline
  coronary resistance: significantly increased
[2]; CLP caffeine vs CLP saline, 12 mL/g-min coronary flow
  coronary perfusion pressure: significantly increased
[2]; CLP caffeine vs CLP saline, all flow rates greater than 4 mL/g-min
  left ventricular pressure (LVP): significantly improved
[2]; CLP caffeine vs saline injected sham, flow rates except 12 mL/g-min
  left ventricular pressure (LVP): approached saline injected sham values
[2]; CLP caffeine vs sham cohorts, 12 mL/g-min coronary flow
  left ventricular pressure (LVP): significantly lower than both sham cohorts
[2]; CLP caffeine vs sham controls, almost all coronary flow rates
  coronary perfusion pressure: significant reductions
[2]; [5]
  myocardial oxygen consumption: significantly increased
  myocardial oxygen extraction: significantly increased
[2]; CLP caffeine
  heart rate: 262+/−11 bpm
[2]; [6]
  +dP/dt: significantly improved
  −dP/dt: significantly improved
[2]; sham caffeine vs all other groups, highest coronary flow rates
  left ventricular pressure (LVP): significantly increased
[2]; sham caffeine vs both CLP cohorts, 12 mL/g-min coronary flow
  myocardial oxygen consumption: significantly increased
[2]; [7]
  +dP/dt: significantly increased
  −dP/dt: significantly increased
[2]; [8]
  +dP/dt: significantly increased
  −dP/dt: significantly increased
[2]; sham caffeine vs sham saline
  coronary resistance: significantly decreased
[2]; sham caffeine vs sham saline, highest flow rate
  coronary perfusion pressure: significantly reduced
[2]; sham caffeine
  heart rate: 276+/−11 bpm
[3]; CLP rats, 48 hours, caffeine 7.5 mg/kg i.p. at 24 and 48 hours, vs sham
  myocardial CcOX kinetic activity normalized to citrate synthase activity: restored CcOX kinetic activity in CLP rats to sham values
[3]; sham animals, caffeine injected vs saline injected
  myocardial CcOX kinetic activity normalized to citrate synthase activity: no significant difference
[4]; CLP, caffeine 7.5 mg/kg i.p. daily from 24 hours, 48 hours
  animals survived to 48 hours: Eighty
[4]; CLP, caffeine 7.5 mg/kg i.p. daily from 24 hours, 72 hours
  animals survived to 72 hours: 55%
[4]; CLP, caffeine 7.5 mg/kg i.p. daily from 24 hours, 96 hours
  animals survived to 96 hours: 40%
[4]; sham operation, caffeine 7.5 mg/kg i.p. daily, to 96 hours
  mortality: no mortality
